Test results taken from patent publication US12209102B2, “Heterocyclic compounds and uses thereof” (Kumquat Biosciences Inc., priority 2022, dated 2025).

Legend:
K-Ras G12D = target: T1, K-Ras G12D (Homo sapiens, UniProt P01116, G12D); assay: HTRF resonance energy transfer assay, K-Ras G12D / SOS1 interaction; assay type: biochemical; conditions: HTRF assay of Example 5; read-out: IC50 against K-Ras G12D
T1 construct: made in house; host or cells: E. coli BL21 (DE3)
Outline: (§1)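 GST-tagged K-Ras (WT or mutant) bound to anti-GST-Eu donor was mixed with His-hSOS1 bound to anti-6His-XL665 acceptor in ~5 mM HEPES pH 7.4, 150 mM NaCl, 1 mM DTT, 0.05% BSA, 0.0025% Igepal. HTRF (ex 337, em 620/665 nm) was read after ~10 min or longer. IC50 came from the 665/620 ratio over duplicates from 10 μM to 0.01 μM.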

K-Ras G12S = target: T2, K-Ras G12S (Homo sapiens, UniProt P01116, G12S); assay: HTRF resonance energy transfer assay, K-Ras G12S / SOS1 interaction; assay type: biochemical; conditions: HTRF assay of Example 5; read-out: IC50 against K-Ras G12S
T2 construct: made in house; host or cells: E. coli BL21 (DE3)
T2 sequence (P01116 1-188 isoform P01116-2 G12S): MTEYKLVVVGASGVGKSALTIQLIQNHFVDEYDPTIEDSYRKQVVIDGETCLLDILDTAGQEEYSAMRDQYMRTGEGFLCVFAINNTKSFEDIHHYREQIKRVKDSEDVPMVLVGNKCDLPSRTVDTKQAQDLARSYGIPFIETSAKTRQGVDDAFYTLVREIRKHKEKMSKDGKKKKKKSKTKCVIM
Outline: as §1

K-Ras G12V = target: T3, K-Ras G12V (Homo sapiens, UniProt P01116, G12V); assay: HTRF resonance energy transfer assay, K-Ras G12V / SOS1 interaction; assay type: biochemical; conditions: HTRF assay of Example 5; read-out: IC50 against K-Ras G12V
T3 construct: made in house; host or cells: E. coli BL21 (DE3)
T3 sequence (P01116 1-188 isoform P01116-2 G12V): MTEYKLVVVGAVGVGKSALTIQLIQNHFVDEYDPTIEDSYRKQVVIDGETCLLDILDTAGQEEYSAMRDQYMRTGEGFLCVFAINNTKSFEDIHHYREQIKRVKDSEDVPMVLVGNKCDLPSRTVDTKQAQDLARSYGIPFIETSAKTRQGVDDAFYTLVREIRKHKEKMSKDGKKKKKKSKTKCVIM
Outline: as §1

K-Ras WT = target: T4, K-Ras WT (Homo sapiens, UniProt P01116); assay: HTRF resonance energy transfer assay, K-Ras WT / SOS1 interaction; assay type: biochemical; conditions: HTRF assay of Example 5; read-out: IC50 against K-Ras WT
T4 construct: made in house; host or cells: E. coli BL21 (DE3)
T4 sequence (P01116 1-188 isoform P01116-2): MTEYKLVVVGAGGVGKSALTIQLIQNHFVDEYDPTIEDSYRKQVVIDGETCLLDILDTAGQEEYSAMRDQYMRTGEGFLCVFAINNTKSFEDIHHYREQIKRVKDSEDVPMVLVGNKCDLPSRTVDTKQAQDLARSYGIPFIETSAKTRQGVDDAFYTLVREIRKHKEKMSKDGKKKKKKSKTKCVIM
Outline: as §1

SW620 cells = assay: Ras cellular assay, growth of cells with K-Ras G12V mutation (CellTiter-Glo); assay type: cell-based; conditions: Homo sapiens, SW-620; cell growth, Example 9, G12V mutation; read-out: IC50 against SW620 cells
Procedure: For example, this assay can be also used to assess a selective growth inhibition of a mutant Ras protein relative to a wildtype, or relative to a different mutant Ras protein.
SW620 (ATCC CCL-227) and Capan-1 (ATCC HTB-79) cell lines comprise a G12V mutation and can be used to assess Ras cellular signaling in vitro, e.g., in response to the compounds herein. SW620 culture medium is prepared with RPMI-1640 and 10% heat-inactivated FBS. Capan-1 culture medium is prepared with RPMI-1640 and 10% heat-inactivated FBS. A CellTiter-Glo (CTG) luminescent based assay (Promega) is used to assess growth of the cells, as a measurement of the ability of the compounds herein to inhibit Ras signaling in the cells. The cells (e.g., 800 per well) are seeded in their respective culture medium in standard tissue culture-treated 384-well format plates (Falcon #08-772-116) or ultra-low attachment surface 384-well format plates (S-Bio #MS-9384WZ). The day after plating, cells are treated with a dilution series (e.g., a 10 point 3-fold dilution series) of the compounds herein (e.g., approximately 40 μL final volume per well). Cell viability can be monitored (e.g., approximately 6 days later) according to the manufacturer's recommended instructions, where the CellTiter-Glo reagent is added (e.g., approximately 10 μL), vigorously mixed, covered, and placed on a plate shaker (e.g., approximately for 20 min) to ensure sufficient cell lysis prior to assessment of luminescent signal. The IC50 values are determined using the four parameter fit. The resulting IC50 value is a measurement of the ability of the compounds herein to reduce cell growth of Ras-driven cells (e.g., tumor cell lines) in vitro and/or in vivo.

T1 sequence (P01116 1-188 isoform P01116-2 G12D): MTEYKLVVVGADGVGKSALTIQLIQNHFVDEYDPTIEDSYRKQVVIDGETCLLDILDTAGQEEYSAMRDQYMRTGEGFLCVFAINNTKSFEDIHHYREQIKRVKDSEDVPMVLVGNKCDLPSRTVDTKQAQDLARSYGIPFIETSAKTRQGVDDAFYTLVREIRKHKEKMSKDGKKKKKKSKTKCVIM

CC1COc2c(Cl)c(-c3ccc(F)c4sc(N)c(C#N)c34)c(F)c3nc(OC[C@@]45CCCN4C[C@H](F)C5)nc(c23)N1CC(F)F (single isomer, unassigned) [Compound 616]
IC50 (K-Ras G12D): < 100 nM
IC50 (K-Ras G12S): < 100 nM
IC50 (K-Ras G12V): < 100 nM
IC50 (K-Ras WT): < 100 nM
IC50 (SW620 cells): < 5000 nM

N#Cc1c(N)sc2c(F)ccc(-c3c(Cl)c4c5c(nc(OC[C@@]67CCCN6C[C@H](F)C7)nc5c3F)N(CC(F)F)C(CC3CC3C#N)CO4)c12 (single isomer, unassigned) [Compound 674]
IC50 (K-Ras G12D): < 100 nM
IC50 (K-Ras G12V): < 100 nM
IC50 (K-Ras WT): < 100 nM
IC50 (SW620 cells): < 5000 nM

N#Cc1c(N)sc2c(F)ccc(-c3c(Cl)c4c5c(nc(OC[C@@]67CCCN6C[C@H](F)C7)nc5c3F)N(CC(F)F)[C@@H](C=C(F)F)CO4)c12 (single isomer, unassigned) [Compound 751]
IC50 (K-Ras G12D): < 100 nM
IC50 (K-Ras G12S): < 100 nM
IC50 (K-Ras G12V): < 100 nM
IC50 (K-Ras WT): < 100 nM
IC50 (SW620 cells): < 5000 nM

CN(C)C(=O)C1CC(N2CCOc3c(Cl)c(-c4ccc(F)c5sc(N)c(C#N)c45)c(F)c4nc(OC[C@@]56CCCN5C[C@H](F)C6)nc2c34)C1 (single isomer, unassigned) [Compound 754]
IC50 (K-Ras G12D): < 100 nM
IC50 (K-Ras G12S): < 100 nM
IC50 (K-Ras G12V): < 100 nM
IC50 (K-Ras WT): < 100 nM
IC50 (SW620 cells): < 5000 nM

N#Cc1c(N)sc2c(F)ccc(-c3c(Cl)c4c5c(nc(OC[C@@]67CCCN6C[C@H](F)C7)nc5c3F)N(CC3CC3C#N)[C@@H](C3(O)CC3)CO4)c12 (single isomer, unassigned) [Compound 821]
IC50 (K-Ras G12D): < 100 nM
IC50 (K-Ras G12S): < 100 nM
IC50 (K-Ras G12V): < 100 nM
IC50 (K-Ras WT): < 100 nM
IC50 (SW620 cells): < 5000 nM

CC[C@H]1COc2c(Cl)c(-c3ccc(F)c4sc(N)c(C#N)c34)c(F)c3nc(OC[C@@]45CCCN4C[C@H](F)C5)nc(c23)N1CC(F)F [Compound 619, 2-amino-4-((5S)-8-chloro-4-(2,2-difluoroethyl)-5-ethyl-10-fluoro-2-(((2R,7aS)-2-fluorotetrahydro-1H-pyrrolizin-7a(5H)-yl)methoxy)-5,6-dihydro-4H-[1,4]oxazepino[5,6,7-de]quinazolin-9-yl)-7-fluorobenzo[b]thiophene-3-carbonitrile]
IC50 (K-Ras G12D): < 100 nM
IC50 (K-Ras G12S): < 100 nM
IC50 (K-Ras G12V): < 100 nM
IC50 (K-Ras WT): < 100 nM
IC50 (SW620 cells): < 5000 nM

N#Cc1c(N)sc2c(F)ccc(-c3c(Cl)c4c5c(nc(OC[C@@]67CCCN6C[C@H](F)C7)nc5c3F)N(C3CCOC3)[C@@H](C(F)F)CO4)c12 (stereo partly drawn) [Compound 747, 2-amino-4-((5R)-8-chloro-5-(difluoromethyl)-10-fluoro-2-(((2R,7aS)-2-fluorotetrahydro-1H-pyrrolizin-7a(5H)-yl)methoxy)-4-(tetrahydrofuran-3-yl)-5,6-dihydro-4H-[1,4]oxazepino[5,6,7-de]quinazolin-9-yl)-7-fluorobenzo[b]thiophene-3-carbonitrile]
IC50 (SW620 cells): < 5000 nM

N#Cc1c(N)sc2c(F)ccc(-c3c(Cl)c4c5c(nc(OC[C@@]67CCCN6C[C@H](F)C7)nc5c3F)N(CC(F)F)C(C3CCCN3)CO4)c12 (stereo partly drawn) [Compound 784, 2-amino-4-(8-chloro-4-(2,2-difluoroethyl)-10-fluoro-2-(((2R,7aS)-2-fluorotetrahydro-1H-pyrrolizin-7a(5H)-yl)methoxy)-5-(pyrrolidin-2-yl)-5,6-dihydro-4H-[1,4]oxazepino[5,6,7-de]quinazolin-9-yl)-7-fluorobenzo[b]thiophene-3-carbonitrile]
IC50 (K-Ras G12D): < 100 nM
IC50 (K-Ras G12V): < 100 nM
IC50 (SW620 cells): < 5000 nM

CS(=O)(=O)NCC1COc2c(Cl)c(-c3ccc(F)c4sc(N)c(C#N)c34)c(F)c3nc(OC[C@@]45CCCN4C[C@H](F)C5)nc(c23)N1CC(F)F (stereo partly drawn) [Compound 847, N-((9-(2-amino-3-cyano-7-fluorobenzo[b]thiophen-4-yl)-8-chloro-4-(2,2-difluoroethyl)-10-fluoro-2-(((2R,7aS)-2-fluorotetrahydro-1H-pyrrolizin-7a(5H)-yl)methoxy)-5,6-dihydro-4H-[1,4]oxazepino[5,6,7-de]quinazolin-5-yl)methyl)methanesulfonamide]
IC50 (K-Ras G12V): < 100 nM
IC50 (SW620 cells): < 5000 nM

C[C@H]1CN(CC2(N(C)C)CCC2)c2nc(OC[C@@]34CCCN3C[C@H](F)C4)nc3c(F)c(-c4ccc(F)c5sc(N)c(C#N)c45)c(Cl)c(c23)O1 [Compound 978, 2-amino-4-((6S)-8-chloro-4-((1-(dimethylamino)cyclobutyl)methyl)-10-fluoro-2-(((2R,7aS)-2-fluorotetrahydro-1H-pyrrolizin-7a(5H)-yl)methoxy)-6-methyl-5,6-dihydro-4H-[1,4]oxazepino[5,6,7-de]quinazolin-9-yl)-7-fluorobenzo[b]thiophene-3-carbonitrile]
IC50 (K-Ras G12S): < 100 nM
IC50 (K-Ras G12V): < 100 nM
IC50 (SW620 cells): < 5000 nM

N#Cc1c(N)sc2c(F)ccc(-c3c(Cl)c4c5c(nc(OC[C@@]67CCCN6C[C@H](F)C7)nc5c3F)N(C3CCCCN(C(=O)C5CN5)C3)CCO4)c12 (stereo partly drawn) [Compound 992, 2-amino-4-(4-(1-(aziridine-2-carbonyl)azepan-3-yl)-8-chloro-10-fluoro-2-(((2R,7aS)-2-fluorotetrahydro-1H-pyrrolizin-7a(5H)-yl)methoxy)-5,6-dihydro-4H-[1,4]oxazepino[5,6,7-de]quinazolin-9-yl)-7-fluorobenzo[b]thiophene-3-carbonitrile]
IC50 (SW620 cells): < 5000 nM

N#Cc1c(N)sc2c(F)ccc(-c3c(Cl)c4c5c(nc(OC[C@@]67CCCN6C[C@H](F)C7)nc5c3F)N(CC(F)F)[C@@H](C3(O)CC3)CO4)c12 [Compound 1001, 2-amino-4-((R)-8-chloro-4-(2,2-difluoroethyl)-10-fluoro-2-(((2R,7aS)-2-fluorotetrahydro-1H-pyrrolizin-7a(5H)-yl)methoxy)-5-(1-hydroxycyclopropyl)-5,6-dihydro-4H-[1,4]oxazepino[5,6,7-de]quinazolin-9-yl)-7-fluorobenzo[b]thiophene-3-carbonitrile]
IC50 (SW620 cells): < 5000 nM

N#Cc1c(N)sc2c(F)ccc(-c3c(Cl)c4c5c(nc(OC[C@@]67CCCN6C[C@H](F)C7)nc5c3F)N(CC(F)F)C(C3CNC3)CO4)c12 (stereo partly drawn) [Compound 1131, 2-amino-4-(5-(azetidin-3-yl)-8-chloro-4-(2,2-difluoroethyl)-10-fluoro-2-(((2R,7aS)-2-fluorotetrahydro-1H-pyrrolizin-7a(5H)-yl)methoxy)-5,6-dihydro-4H-[1,4]oxazepino[5,6,7-de]quinazolin-9-yl)-7-fluorobenzo[b]thiophene-3-carbonitrile]
IC50 (K-Ras G12D): < 100 nM
IC50 (K-Ras G12S): < 100 nM
IC50 (K-Ras G12V): < 100 nM
IC50 (K-Ras WT): < 100 nM

N#Cc1c(N)sc2c(F)ccc(-c3c(Cl)c4c5c(nc(OC[C@@]67CCCN6C[C@H](F)C7)nc5c3F)N(CC3(N)CCC3)CCCO4)c12 [Compound 1213, 2-amino-4-(4-((1-aminocyclobutyl)methyl)-9-chloro-11-fluoro-2-(((2R,7aS)-2-fluorotetrahydro-1H-pyrrolizin-7a(5H)-yl)methoxy)-4,5,6,7-tetrahydro-[1,5]oxazocino [4,3,2-de]quinazolin-10-yl)-7-fluorobenzo[b]thiophene-3-carbonitrile]
IC50 (K-Ras G12D): < 100 nM
IC50 (K-Ras G12S): < 100 nM
IC50 (K-Ras G12V): < 100 nM
IC50 (K-Ras WT): < 100 nM

N#Cc1c(N)sc2c(F)ccc(-c3c(Cl)c4c5c(nc(OC[C@@]67CCCN6C[C@H](F)C7)nc5c3F)NCCC(CO)O4)c12 (stereo partly drawn) [Compound 1214, 2-amino-4-(9-chloro-11-fluoro-2-(((2R,7aS)-2-fluorotetrahydro-1H-pyrrolizin-7a(5H)-yl)methoxy)-7-(hydroxymethyl)-4,5,6,7-tetrahydro-[1,5]oxazocino[4,3,2-de]quinazolin-10-yl)-7-fluorobenzo[b]thiophene-3-carbonitrile]
IC50 (K-Ras G12D): < 100 nM
IC50 (K-Ras G12S): < 100 nM
IC50 (K-Ras G12V): < 100 nM
IC50 (K-Ras WT): < 100 nM
